Results on 4 molecules are retold here after patent US4960765A, “Pharmaceutical composition and method for the treatment of colitis ulcerosa and Crohn's disease by oral administration” (priority 1989, dated 1990).

In data set [1] the test system is colitis ulcerosa. To be noted: cited from earlier work; for therapeutic role on rectal administration: Azad Khan et al.
For data set [2] the following is noted: cited from earlier work.
Data set [3] in a line: Plasma concentrations in healthy volunteers. In kind it is in vivo, human (healthy volunteers).
Experimental: (§3) Each subject took two 5-ASA tablets, i.e. 500 mg 5-ASA, three times a day for six days, at 8 a.m., 4 p.m. and at midnight except for the first day, where the two first ingestions took place at 9 a.m. and 5 p.m. […] The two tablets at 8 a.m. were taken by the fasting subject. Venous blood samples for determination of 5-ASA and 5-AsASA were drawn at intevals throughout the first day (FIG. 5) and at 7.50 the following five days(i.e. before the 8 a.m. tablets were ingested) (FIG. 6). Twenty-four hour urine and faecal smaples were collected on the 6th day for quantitative determination of 5-ASA and 5-AcASA. EVery day throughout the study peroid of six days a single faecal sample was analgzed qualitatively for the presence of 5-ASA and 5-AcASA.
The conditions of data set [4]: cited from earlier work; for amounts observed in the feces: oral 5-ASA, healthy volunteers.
For data set [5] the following is noted: oral 5-ASA; rats; cited from earlier work.
Data set [6] can be described thus: Urinary excretion in healthy volunteers. The format is in vivo, human (healthy volunteers). The text has this:
It is the purpose of the clinical studies described below to estimate the bioavailability of a sustained-release type 5-ASA tablet (Pentasea®) of the composition described above in the example by the study of 5-ASA/5-AcASA plasma levels in healthy volunteers as well as the excretion pattern in urine and faces.
(§1) DETERMINATION OF 5-ASA AND 5-AcASA IN BIOLOGICAL FLUIDS
(§2) Procedures for the determination of 5ASA and 5AcASA in ileostomy effluents, feces, urine and blood were based on a newly developed HPLC assay combined with flurescens spectophotometry.
Fourteen healthy persons consented to volunteer. They had no previous or present symptoms or signs of gastrointestinal or other disease apart from uncomplicated appendectomy. There were seven females and seven males. Mean age and age range were for the women 32.4 years and 29-37 years, and for the males 32 years and 24-40 years, respectively. Mean body weight and weight range were for the females 58.6 kg and 53-67 kg, and for the males 70.9 kg and 60-83 kg, respectively. There were eight slow and 6 fast acetylators.
Each subject took two 5-ASA tablets, i.e. 500 mg 5-ASA, three times a day for six days, at 8 a.m., 4 p.m. and at midnight except for the first day, where the two first ingestions took place at 9 a.m. and 5 p.m. The injections are shown by arrows on FIG. 5 and 6. The two tablets at 8 a.m. were taken by the fasting subject. Venous blood samples for determination of 5-ASA and 5-AsASA were drawn at intevals throughout the first day (FIG. 5) and at 7.50 the following five days(i.e. before the 8 a.m. tablets were ingested) (FIG. 6). Twenty-four hour urine and faecal smaples were collected on the 6th day for quantitative determination of 5-ASA and 5-AcASA. EVery day throughout the study peroid of six days a single faecal sample was analgzed qualitatively for the presence of 5-ASA and 5-AcASA.

The nature of data set [7]: Plasma concentrations in ileostomy patients. The note with it: half an hour after ingestion of 500 mg 5-ASA. In kind it is in vivo, human (ileostomy patients).
Source text: as §1, §2
Six ileostomy patients colectomized because of colitis ulcerosa with intact small bowel were studied. Their distribution as to sex, age, height, body weight, time since colectomy, small bowel transit time (carmine), and acetylator phenotype (v. Fischer and Klotz, op. cit.) (assessed by sulphadimidine) are shown below in talbe I.
A single dose of two tablets of sustained-release 5-ASA i.e. total dose 500 mg, were ingested at 8 a.m. by the fasting patient who thereafter took a normal continental breakfast, lunch at noon, and dinner at 6 p.m. Ileostomy effluents were collected every hour for eight hours (FIGS. 1+2) urine was collected over an 8 hour period and venous blood was drawn at intervals through the first eight hours (FIGS. 3 and 4).

A short description of data set [8]: Ileostomy effluent study (5-ASA / 5-AcASA excretion) in ileostomy patients. The format is in vivo, human (ileostomy patients). The note with it: for detection in ileostomy secretions: first two hours, 500 mg 5-ASA single oral dose; for excretion rate in ileostomy effluents: following hours up to 8 hours after ingestion. The text has this: DETERMINATION OF 5-[…] BIOLOGICAL FLUIDS […] ILEOSTOMY PATIENTS Six ileostomy patients colectomized because of colitis ulcerosa with intact small bowel were studied. Their distribution as to sex, age, height, body weight, time since colectomy, small bowel transit time (carmine), and acetylator phenotype (v. Fischer and Klotz, op. cit.) (assessed by sulphadimidine) are shown below in talbe I. ILEOSTOMY PATIENTS […] Ileostomy effluents were collected every hour for eight hours (FIGS. 1+2) urine was collected over an 8 hour period and venous blood was drawn at intervals through the first eight hours (FIGS. 3 and 4).

The nature of data set [9]: Faecal excretion and total recovery in healthy volunteers. The format is in vivo, human (healthy volunteers). To be noted: for daily qualitative faecal analysis: morning samples from day 2 throughout the study.
Experimental: as §3
Data set [10] deals with inflamed mucosa in ulcerative colitis. To be noted: enema; compared with 5-ASA; cited from earlier work.
A short description of data set [11]: Urinary excretion in ileostomy patients. The format is in vivo, human (ileostomy patients). The protocol:
DETERMINATION OF 5-[…] BIOLOGICAL FLUIDS […] Six ileostomy patients colectomized because of colitis ulcerosa with intact small bowel were studied. Their distribution as to sex, age, height, body weight, time since colectomy, small bowel transit time (carmine), and acetylator phenotype (v. Fischer and Klotz, op. cit.) (assessed by sulphadimidine) are shown below in talbe I. […] Ileostomy effluents were collected every hour for eight hours (FIGS. 1+2) urine was collected over an 8 hour period and venous blood was drawn at intervals through the first eight hours (FIGS. 3 and 4).

The conditions of data set [12]: cited from earlier work. The source holds these as a separate data set.
Data set [13] relates to Crohn's disease. The note with it: cited from earlier work.

“Also recorded” adds a separate entry of the source. Where two headings read alike, the source gives them in different places. Where only a bound is given, the exact number is not on record here.

Consider `Nc1ccc(S(=O)(=O)Nc2ccccn2)cc1` [SP, sulfapyridine], for which the “therapeutic role on rectal administration” value in [1] is given as “only acts as a "carrier"”. For the same molecule, in data set [2] (after SASP), the “absorption from the colon” value is “highly absorbed from the colon”.
Regarding `CC(=O)Nc1ccc(O)c(C(=O)O)c1` [5-AcASA, N-acetyl-5-aminosalicylic acid], the “detection in plasma and urine” value in data set [3] (whole study, 500 mg t.i.d. for six days) is “only 5AcASA was detected”. In addition, the “amounts observed in the feces” value in data set [4] and in data set [5] was “no noticeable amounts” throughout. The serum concentrations result in data set [2] (after oral administration of 4 g of SASP, Fischer and Klotz) is recorded as “very low serum concentrations”. In [6] (day 6, steady state), the “95% confidence limits of mean urinary 5-AsASA excretion” value is given as 587-887 mg per 24 h. In [6] (day 6, steady state, 24 h, calculated as 5-ASA, mean), the “mean urinary 5-AsASA excretion during 24 h” value is 737 mg. In [7], the “plasma amounts of 5AsASA” value is reported as “Trace amounts”. Further, the “share of collected portion as free 5-AsASA” value in [8] (8 hours, of the 58% collected) is listed as “another third”. Besides, the “detection in ileostomy secretions” value in data set [8] is “no 5-ASA or 5-AcASA could be detected”. For the same molecule, in data set [8] (500 mg 5-ASA), the “excretion rate in ileostomy effluents” value was “excreted at constant rates”. Further, the “daily qualitative faecal analysis” value in [9] is “presence”. Also, the “effect on the inflamed mucosa in ulcerative colitis” value in [10] is “resembled 5-ASA in its effect on the inflamed mucosa”. The “mean 5-AsASA found in urine” value in data set [11] (within 8 hours, 500 mg 5-ASA, mean) was found to be 60 mg. Further, the “range of 5-AsASA found in urine” value in [11] (within 8 hours, 500 mg 5-ASA, range) lay within 42 to 82 mg.
Take `O=C(O)c1cc(/N=N/c2ccc(S(=O)(=O)Nc3ccccn3)cc2)ccc1O` [SASP, salicylazosulfapyridine]: the “state on reaching the colon” value in [2] (oral SASP) is reported as “reaches the colon intact”. Also, in data set [12] (excludes SASP treatment), the “patients allergic to sulfa drugs” value is “up to 10%”. Moreover, the side effects entry in data set [12] (in vivo) is “nausea and vomitting, skin rashes, anemia, arthralgias, headache”. Moreover, the “effectiveness in Crohn's disease of colon and rectum” value in [13] (disease extends to or limited to colon and rectum) is listed as “proved effective”. Besides, the “effectiveness in Crohn's disease limited to the ileum” value in data set [13] (disease limited to the ileum) was “not proved to be very effective”.
Consider `Nc1ccc(O)c(C(=O)O)c1` [5-ASA, 5-aminosalicylic acid], for which the concentration at 144 h in [3] (human, plasma, po, day six, all fourteen subjects, 500 mg t.i.d., read-out: total range of 5-ASA plasma concentrations) lay in the range of 1200 to 2830 ng/mL. Also, in [3] (slow and fast acetylators), the “variation according to acetylator phenotype” value is “did not show a significant variation”. Also, the “absorption from the small bowel” value in data set [4] (free 5-ASA, oral, healthy subjects) is on record as “absorbed from the small bowel in particular the jejunum; also recorded: essentially completely”. Further, the “amounts observed in the feces” value in [4] is reported as “no noticeable amounts”. The therapeutic effect entry in data set [1] (Azad Khan et al. and van Hees et al.) is on record as “also has therapeutic effect”. In data set [1], the “therapeutic role on rectal administration” value is reported as “therapeutically active moiety; also recorded: exhibits a useful therapeutic activity like SASP”. For the same molecule, in data set [2] (after SASP), the “absorption from the colon” value is reported as “the major part of the released 5-ASA is not absorbed”. Besides, in data set [2] (after SASP, van Hees et al.), the “absorption of 5-ASA from the colon in diarrhoea” value was “drastically decreased”. The serum concentrations result in data set [2] (in vivo, po) was “very low serum concentrations”. Besides, in [5], the “absorption from the small bowel” value was “essentially completely” and the “amounts observed in the feces” value was “no noticeable amounts”. In addition, the “urinary excretion of free 5-ASA” value in data set [6] (500 mg t.i.d.) is given as “could not be recorded”. For the same molecule, in data set [8] (8 hours, of the 58% collected), the “share of collected portion as 5-ASA still retained in the granules” value is “last third” and the “share of collected portion as free 5-ASA” value is “one third”. For the same molecule, in data set [8], the “detection in ileostomy secretions” value was “no 5-ASA or 5-AcASA could be detected”. The “excretion rate in ileostomy effluents” value in data set [8] (500 mg 5-ASA) was “excreted at constant rates”. In data set [8] (human, ileostomy effluent, po, 500 mg, one patient, collecting up to 48 hours, read-out: further 5-ASA found on expanded collection), the dose excreted at 48 h was 20%. Further, the dose excreted at 8 h in data set [8] (human, ileostomy effluent, po, 8 hours after ingestion, 500 mg 5-ASA, read-out: ingested total dose collected in the ileostomy bags) came out at 58%. In data set [8] (human, small bowel, po, 500 mg, composition of the invention, ileostomy patients, read-out: 5-ASA that may be absorbed from the small bowel), the Fa is no more than 50%. Also, the “5-ASA retained in the granules” value in data set [8] (one patient, collecting up to 48 hours) is reported as “more than one third”. The “faecal content of granules, released and non-released 5-ASA (average total)” value in [9] (analysed 24 hours after collection of the faeces) is 5-10%. For the same molecule, the “95% confidence limits of mean faecal excretion of free 5-ASA and 5-AsASA” value in data set [9] (day 6, steady state) is listed as 378-650 mg per 24 h. The “total mean faecal excretion of free 5-ASA and 5-AsASA” value in [9] (day 6, steady state, sum of 5-ASA and 5-AsASA, mean) is given as 514 mg per 24 h. In data set [9] (human, urine and faeces, po, day 6, steady state, daily ingested total dose 1500 mg 5-ASA, read-out: mean recovery rate), the recovery is 83%. Moreover, in data set [9], the “daily qualitative faecal analysis” value is “presence”. Moreover, the “5ASA found in urine” value in data set [11] (500 mg 5-ASA single oral dose) is on record as “no 5ASA was found except in one case”. For the same molecule, in data set [11] (one patient, 500 mg 5-ASA), the “5-ASA found in urine, one case” value is recorded as 1.4 mg.
